According to ChEMBL document CHEMBL1201862, “PubChem BioAssay data set” (2004):
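Growth conditions: 96-well plates. Treatment: test compound, 48 hours, 5 concentrations. Analysis: linear interpolation between bracketing concentrations; unreached endpoints set to highest concentration. GI50: concentration for 50% inhibition of growth.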 Activity calls are given as the source filed them. Rule as the data show it: active = GI50 up to about 1.1 µM and inactive = higher.

Assays:
Experiment in all cases: DTP human tumour cell line panel, 48 h
DLD-1 = test system: DLD-1
SNB-78 = test system: SNB-78
M19-MEL = test system: M19-MEL
KM-20L2 = test system: KM-20L2
DMS-114 = test system: DMS-114
XF498 = test system: XF498
RXF 631 = test system: RXF 631
DMS-273 = test system: DMS-273
HOP-18 = test system: HOP-18

Row | SMILES | GI50 (DLD-1) | GI50 (SNB-78) | GI50 (M19-MEL) | GI50 (KM-20L2) | GI50 (DMS-114) | GI50 (XF498) | GI50 (RXF 631) | GI50 (DMS-273) | GI50 (HOP-18)
1 | CC(=O)N(O)Cc1ccccc1 | > 100 µM (inactive) | > 100 µM (inactive) | > 100 µM (inactive) | > 100 µM (inactive) | > 100 µM (inactive) | > 100 µM (inactive) | > 100 µM (inactive) | – | –
2 | CCOC(=O)C(C)(C)Oc1ccc2c(=O)cc(-c3ccc(Cl)cc3)oc2c1 | > 100 µM (inactive) | – | > 100 µM (inactive) | > 100 µM (inactive) | > 100 µM (inactive) | > 100 µM (inactive) | > 100 µM (inactive) | > 100 µM (inactive) | –
3 | COC(=O)C(Cc1nc2ccccc2nc1O)C(=O)C(=O)Nc1ccc([N+](=O)[O-])cc1[N+](=O)[O-] (configuration not stated) | 19.5 µM (inactive) | 38.4 µM (inactive) | 16.6 µM (inactive) | 20.4 µM (inactive) | 16.1 µM (inactive) | 20.1 µM (inactive) | 24.5 µM (inactive) | 17.6 µM (inactive) | 16.8 µM (inactive)
4 | NCC(=O)OCN1C(=O)C2C3C=CC(C2C1=O)C1C2C(=O)N(COC(=O)CN)C(=O)C2C31 (configuration not stated) | 25.1 µM (inactive) | 53.6 µM (inactive) | 21 µM (inactive) | 28.6 µM (inactive) | 16.2 µM (inactive) | 31.4 µM (inactive) | – | 19.8 µM (inactive) | 25.9 µM (inactive)
5 | c1ccc(C2=NOC3COc4ccccc4OCC23)cc1 (configuration not stated) | – | > 100 µM (inactive) | – | > 100 µM (inactive) | > 100 µM (inactive) | – | – | > 100 µM (inactive) | –
6 | CCc1oc2ccc(OC)c3c2c1C=CC=C3 | > 100 µM (inactive) | > 100 µM (inactive) | > 100 µM (inactive) | – | – | – | – | > 100 µM (inactive) | –
7 | C=CCNC(=O)N(CCCCC(NC(C)=O)C(=O)NCc1ccccc1)Cc1ccccc1 (configuration not stated) | – | – | > 100 µM (inactive) | > 100 µM (inactive) | – | > 100 µM (inactive) | > 100 µM (inactive) | > 100 µM (inactive) | > 100 µM (inactive)
8 | Cc1oc2c(c1C(=O)c1ccccc1)C(=O)c1ccccc1C2=O | 5.02 µM (inactive) | > 100 µM (inactive) | 2.18 µM (inactive) | 17.7 µM (inactive) | 2.45 µM (inactive) | 2.32 µM (inactive) | 17.7 µM (inactive) | 8.34 µM (inactive) | 16.6 µM (inactive)
9 | CCCCC(C(=O)C(=O)NC1C2CC3CC(C2)CC1C3)C(=O)C(C)C (configuration not stated) | – | > 100 µM (inactive) | > 100 µM (inactive) | > 100 µM (inactive) | > 100 µM (inactive) | > 100 µM (inactive) | > 100 µM (inactive) | > 100 µM (inactive) | > 100 µM (inactive)
10 | Cn1c(-c2ccccc2)c/c(=N\NS(C)(=O)=O)c2cc(S(=O)(=O)O)ccc21 | > 100 µM (inactive) | > 100 µM (inactive) | > 100 µM (inactive) | > 100 µM (inactive) | > 100 µM (inactive) | > 100 µM (inactive) | – | > 100 µM (inactive) | > 100 µM (inactive)
11 | COc1ccc(NC(=O)C(C)Oc2ccc(OCC3CCCCC3)cc2)cc1 (configuration not stated) | 64 µM (inactive) | 50.9 µM (inactive) | > 100 µM (inactive) | – | 46.7 µM (inactive) | 85.7 µM (inactive) | – | 42.3 µM (inactive) | –
12 | CC1(C)CC(C)(C)CC(O)(C2(O)CC(C)(C)CC(C)(C)C2)C1 | – | – | > 100 µM (inactive) | > 100 µM (inactive) | > 100 µM (inactive) | > 100 µM (inactive) | – | > 100 µM (inactive) | –
13 | CCOC(=O)N1C/C(=C\c2ccc(N(C)C)cc2)C(=O)/C(=C/c2ccc(N(C)C)cc2)C1 | > 100 µM (inactive) | > 100 µM (inactive) | > 100 µM (inactive) | > 100 µM (inactive) | > 100 µM (inactive) | – | > 100 µM (inactive) | > 100 µM (inactive) | > 100 µM (inactive)
14 | NC(=S)N/N=C(/CC(=O)c1ccccc1)C(=O)Nc1ccc(Cl)c(Cl)c1 | 83.6 µM (inactive) | > 100 µM (inactive) | > 100 µM (inactive) | > 100 µM (inactive) | 71.6 µM (inactive) | – | – | 76.6 µM (inactive) | > 100 µM (inactive)
15 | O=C(CO)CC(=O)C(=O)Nc1nc([N+](=O)[O-])cs1 | > 100 µM (inactive) | > 100 µM (inactive) | > 100 µM (inactive) | > 100 µM (inactive) | > 100 µM (inactive) | – | > 100 µM (inactive) | > 100 µM (inactive) | > 100 µM (inactive)
16 | Cc1nc2c(n1Cc1ccc(F)cc1)C(=O)c1ccccc1C2=O | – | > 100 µM (inactive) | 3.62 µM (inactive) | 38.5 µM (inactive) | – | 29.9 µM (inactive) | – | 6.43 µM (inactive) | –
17 | CC1=C(c2cc(C(=O)Nc3cccc(C(F)(F)F)c3)ncn2)Sc2ccccc2N1 | > 100 µM (inactive) | – | > 100 µM (inactive) | > 100 µM (inactive) | > 100 µM (inactive) | > 100 µM (inactive) | – | > 100 µM (inactive) | > 100 µM (inactive)
18 | O=S(=O)(c1ccccc1)C(CN1CCCCC1)S(=O)(=O)c1ccccc1 | > 100 µM (inactive) | – | > 100 µM (inactive) | > 100 µM (inactive) | – | > 100 µM (inactive) | – | > 100 µM (inactive) | –
19 | Cc1ccc(NC(=O)C(=O)C(C(=O)c2ccc3ccccc3c2)C2OC(=O)c3ccccc32)cc1C (configuration not stated) | 17.7 µM (inactive) | – | 6.34 µM (inactive) | 35.2 µM (inactive) | 9.35 µM (inactive) | 3.29 µM (inactive) | – | 5.87 µM (inactive) | 0.743 µM (active)
20 | CN(C)c1ccc(/C=C(\NC(=O)c2ccccc2)c2nc3ccc4c(c3[nH]2)C(=O)c2ccccc2C4=O)cc1 | 9.48 µM (inactive) | 75.7 µM (inactive) | > 100 µM (inactive) | > 100 µM (inactive) | 21.7 µM (inactive) | – | 34.7 µM (inactive) | 27.2 µM (inactive) | –
21 | CC(=O)[O-].Cc1ncc(CO)c(/C=N/NC(N)=S)c1[O-].[Zn+2] | > 100 µM (inactive) | > 100 µM (inactive) | > 100 µM (inactive) | – | > 100 µM (inactive) | – | > 100 µM (inactive) | > 100 µM (inactive) | > 100 µM (inactive)
22 | CC1CC[C@]2(C(=O)O)CCC3(C)C(=CC(=O)C4[C@@]5(C)CCC(=O)C(C)(C)C5CC[C@]43C)[C@@H]2[C@H]1C (some centres not stated) | – | 46.2 µM (inactive) | 23.3 µM (inactive) | > 10 µM (inactive) | 19.7 µM (inactive) | 10 µM (inactive) | 27.3 µM (inactive) | – | 31.9 µM (inactive)
23 | COc1cc(/C=C2/C(=O)N(C(=O)c3ccccc3O)N=C2C)cc(OC)c1OC | 0.484 µM (active) | 0.277 µM (active) | 0.695 µM (active) | 45.7 µM (inactive) | 0.682 µM (active) | 1.9 µM (inactive) | – | – | –
24 | COc1ccc(OC)c2[nH]c(Sc3c([N+](=O)[O-])ncn3C)nc12 | 20.6 µM (inactive) | 20.9 µM (inactive) | 20.6 µM (inactive) | 20.4 µM (inactive) | 17.4 µM (inactive) | 17.3 µM (inactive) | 18.5 µM (inactive) | 11.8 µM (inactive) | –
25 | CCC1(O)C(=O)OCc2c1cc1n(c2=O)Cc2cc3cc(OC)c(OC)cc3nc2-1 (configuration not stated) | – | – | – | > 100 µM (inactive) | 12.8 µM (inactive) | 34.3 µM (inactive) | – | – | 56.8 µM (inactive)
